DBAASP
In brackets after ≈: the same amount, converted by molar mass. Several values for one entry are separate records, joined by “and”; a condition that tells them apart may be missing. Equal values may be shown once. Blank lines part the entries; values can stand above or below the compound they belong to.

Assays:
Test in all cases: ≥ marks a high value that may be exact or a test limit, other limits are often not marked, values filed in µg/mL are converted to µM
[1] = system: Escherichia coli ATCC 25922
[2] = system: Pseudomonas aeruginosa ATCC 9027
[3] = system: Staphylococcus aureus ATCC 25923
[4] = system: Candida albicans ATCC 10231
[5] = system: Enterococcus faecalis PCM 2673
Bacillus subtilis = system: Bacillus subtilis
[6] = system: Escherichia coli BL21(DE3)
[7] = system: Streptococcus pyogenes ATCC 19615
[8] = system: Enterococcus faecalis ATCC 29212
[9] = system: Pseudomonas aeruginosa ATCC 27853
[10] = system: Klebsiella pneumoniae ATCC 13883
[11] = system: Salmonella enterica subsp. enterica serovar Typhimurium ATCC 14028
[12] = system: Candida albicans TIMM 1768
[13] = system: Trichosporon beigelii KCTC 7707
[14] = system: Saccharomyces cerevisiae KCTC 7296
[15] = system: Micrococcus luteus ATCC 10240
Escherichia coli BL21AI = system: Escherichia coli BL21AI
[16] = system: Staphylococcus aureus ATCC BAA-1556
[17] = system: Klebsiella pneumoniae ATCC 27736
[18] = system: Pseudomonas aeruginosa ATCC BAA-427
[19] = system: Bacillus subtilis ATCC 6633
Escherichia coli = system: Escherichia coli
Escherichia coli MG1655 = system: Escherichia coli MG1655
Bacillus subtilis 168 HT = system: Bacillus subtilis 168 HT

Compound: CC[C@H](C)[C@H](NC(=O)[C@H](CCCCN)NC(=O)[C@H](CCCCN)NC(=O)[C@@H](NC(=O)[C@@H](NC(=O)[C@H](CC(=O)O)NC(=O)[C@H](Cc1ccccc1)NC(=O)[C@H](CC(C)C)NC(=O)CN)[C@@H](C)CC)[C@@H](C)CC)C(=O)N[C@@H](C)C(=O)N[C@@H](CCC(=O)O)C(=O)N[C@@H](CO)C(=O)N[C@@H](C)C(N)=O [GLFDIIKKIAESA]
MIC [1]: 91.1 µM (≈ 128 µg/mL)
MIC [2]: > 365 µM
MIC [3]: > 365 µM
MIC [4]: 365 µM (≈ 512 µg/mL)
MIC [5]: ≥ 91.1 µM

Compound: CC[C@H](C)[C@H](NC(=O)[C@@H](NC(=O)[C@@H](N)CCCN=C(N)N)[C@@H](C)CC)C(=O)N[C@@H](CC(=O)O)C(=O)N[C@@H](CC(C)C)C(=O)N[C@@H](CC(C)C)C(=O)N[C@@H](Cc1c[nH]c2ccccc12)C(=O)N[C@@H](CCCN=C(N)N)C(=O)N[C@H](C(=O)N[C@@H](CCCN=C(N)N)C(=O)N[C@@H](CCCN=C(N)N)C(=O)N1CCC[C@H]1C(=O)N[C@@H](Cc1c[nH]c2ccccc12)C(=O)N[C@@H](Cc1c[nH]c2ccccc12)C(=O)N1CCC[C@H]1C(=O)N[C@@H](CCCCN)C(=O)N[C@@H](Cc1ccccc1)C(=O)N[C@H](C(=O)N[C@H](C(=O)N[C@H](C(=O)N[C@@H](Cc1c[nH]c2ccccc12)C(=O)N[C@H](C(=O)N[C@@H](CCCN=C(N)N)C(N)=O)C(C)C)C(C)C)[C@@H](C)O)C(C)C)C(C)C [RIIDLLWRVRRPWWPKFVTVWVR]
MIC [12]: 10 µM (≈ 30.8 µg/mL)
MIC [13]: 20 µM (≈ 61.6 µg/mL)
MIC [14]: 14.1 µM (≈ 43.5 µg/mL)

Compound: CC[C@H](C)[C@H](NC(=O)[C@@H]1CCCN1C(=O)[C@H](CCCN=C(N)N)NC(=O)[C@@H]1CCCN1C(=O)[C@H](Cc1cnc[nH]1)NC(=O)[C@@H]1CCCN1C(=O)[C@@H]1CCCN1C(=O)[C@H](CCCN=C(N)N)NC(=O)[C@@H]1CCCN1C(=O)[C@H](CCC(N)=O)NC(=O)[C@@H]1CCCN1C(=O)[C@@H](NC(=O)[C@H](Cc1ccc(O)cc1)NC(=O)[C@@H](NC(=O)[C@@H]1CCCN1C(=O)[C@H](CCCN=C(N)N)NC(=O)[C@H](CC(N)=O)NC(=O)[C@H](CC(N)=O)NC(=O)CN)C(C)C)[C@@H](C)CC)C(=O)N[C@@H](CCCN=C(N)N)C(=O)N[C@H](C(=O)O)C(C)C [GNNRPVYIPQPRPPHPRPIRV]
MIC [15]: 0.199 µM (≈ 0.49 µg/mL)
MIC (Escherichia coli BL21AI): 6.35 µM (≈ 15.6 µg/mL)

Compound: CC[C@H](C)[C@H](NC(=O)CNC(=O)[C@H](CCCN=C(N)N)NC(=O)[C@H](Cc1ccccc1)NC(=O)[C@H](C)NC(=O)[C@H](Cc1cnc[nH]1)NC(=O)[C@H](Cc1cnc[nH]1)NC(=O)[C@H](Cc1ccccc1)NC(=O)[C@@H](N)Cc1ccccc1)C(=O)N[C@H](C(=O)N[C@@H](Cc1cnc[nH]1)C(=O)N[C@H](C(=O)NCC(=O)N[C@@H](CCCCN)C(=O)N[C@H](C(=O)N[C@H](C(=O)N[C@@H](Cc1cnc[nH]1)C(=O)N[C@@H](CCCN=C(N)N)C(=O)N[C@@H](CC(C)C)C(=O)N[C@H](C(=O)N[C@H](C(=O)NCC(N)=O)[C@@H](C)O)C(C)C)[C@@H](C)CC)[C@@H](C)O)C(C)C)C(C)C [FFHHAFRGIVHVGKTIHRLVTG]
MIC [17]: 12 µM (≈ 30.3 µg/mL)
MIC [18]: 20 µM (≈ 50.6 µg/mL)
MIC [19]: 16 µM (≈ 40.5 µg/mL)

Compound: CC[C@H](C)[C@H](NC(=O)[C@H](Cc1cnc[nH]1)NC(=O)[C@H](Cc1cnc[nH]1)NC(=O)[C@H](Cc1ccccc1)NC(=O)[C@@H](N)Cc1ccccc1)C(=O)N[C@@H](Cc1ccccc1)C(=O)N[C@@H](CCCN=C(N)N)C(=O)NCC(=O)N[C@H](C(=O)N[C@H](C(=O)N[C@@H](Cc1cnc[nH]1)C(=O)N[C@H](C(=O)NCC(=O)N[C@@H](CCCCN)C(=O)N[C@H](C(=O)N[C@H](C(=O)N[C@@H](Cc1cnc[nH]1)C(=O)N[C@@H](CCCN=C(N)N)C(=O)N[C@@H](CC(C)C)C(=O)N[C@H](C(=O)N[C@H](C(=O)NCC(N)=O)[C@@H](C)O)C(C)C)[C@@H](C)CC)[C@@H](C)O)C(C)C)C(C)C)C(C)C [FFHHIFRGVVHVGKTIHRLVTG]
MIC [17]: 6 µM (≈ 15.3 µg/mL)
MIC [18]: 12 µM (≈ 30.7 µg/mL)
MIC [19]: 8 µM (≈ 20.5 µg/mL)

Compound: CC[C@H](C)[C@H](NC(=O)[C@H](Cc1c[nH]c2ccccc12)NC(=O)[C@H](CCCN=C(N)N)NC(=O)[C@H](CCCN=C(N)N)NC(=O)[C@H](Cc1c[nH]c2ccccc12)NC(=O)[C@@H](N)CCCCN)C(=O)N[C@@H](CC(C)C)C(=O)N[C@@H](Cc1c[nH]c2ccccc12)C(=O)N[C@@H](CC(C)C)C(N)=O [KWRRWILWL]
MIC [16]: 12.5 µM (≈ 16.9 µg/mL)

More lines, now with the values ahead:

MIC (Bacillus subtilis): 10 µM and 4 µM and 8 µM
MIC [6]: 8 µM (≈ 13 µg/mL)
MIC [7]: 4 µM and 8 µM
MIC [8]: 4 µM and 8 µM
MIC [9]: 8 µM and > 4 µM and 10 µM
MIC [10]: 4 µM and 8 µM
MIC [11]: 8 µM and > 4 µM and 10 µM
Compound: CC[C@H](C)[C@H](NC(=O)[C@H](CC(C)C)NC(=O)[C@H](Cc1c[nH]c2ccccc12)NC(=O)[C@@H](NC(=O)[C@H](CC(C)C)NC(=O)[C@H](CCCN=C(N)N)NC(=O)[C@@H](N)CCCN=C(N)N)[C@@H](C)CC)C(=O)N[C@@H](CC(C)C)C(=O)N[C@@H](CCCN=C(N)N)C(=O)N[C@@H](CC(C)C)C(=O)N[C@@H](CC(C)C)C(=O)N[C@@H](CCCN=C(N)N)C(N)=O [RRLIWLILRLLR]

MIC [16]: 25 µM (≈ 32.1 µg/mL)
Compound: CC[C@H](C)[C@H](NC(=O)[C@H](Cc1c[nH]c2ccccc12)NC(=O)[C@H](CCCN=C(N)N)NC(=O)[C@H](CCCN=C(N)N)NC(=O)[C@H](Cc1c[nH]c2ccccc12)NC(=O)[C@@H](N)CCCCN)C(=O)N[C@@H](CCCN=C(N)N)C(=O)N[C@@H](C)C(=O)N[C@@H](CC(C)C)C(N)=O [KWRRWIRAL]

MIC [1]: 356 µM (≈ 512 µg/mL)
MIC [2]: > 356 µM
MIC [3]: > 356 µM
MIC [4]: 178 µM (≈ 256 µg/mL)
MIC [5]: ≥ 178 µM
Compound: CC[C@H](C)[C@H](NC(=O)[C@H](CCCCN)NC(=O)[C@H](CCCCN)NC(=O)[C@H](C)NC(=O)[C@@H](NC(=O)[C@H](CC(=O)O)NC(=O)[C@H](Cc1ccccc1)NC(=O)[C@H](CC(C)C)NC(=O)CN)[C@@H](C)CC)C(=O)N[C@@H](C)C(=O)N[C@@H](CCC(=O)O)C(=O)N[C@@H](CO)C(=O)N[C@@H](Cc1ccccc1)C(N)=O [GLFDIAKKIAESF]

MIC [16]: 12.5 µM (≈ 17.3 µg/mL)
Compound: CC[C@H](C)[C@H](NC(=O)[C@H](Cc1c[nH]c2ccccc12)NC(=O)[C@H](CCCN=C(N)N)NC(=O)[C@H](CCCN=C(N)N)NC(=O)[C@H](Cc1c[nH]c2ccccc12)NC(=O)[C@@H](N)CC(C)C)C(=O)N[C@@H](CCCN=C(N)N)C(=O)N[C@@H](Cc1c[nH]c2ccccc12)C(=O)N[C@@H](CC(C)C)C(N)=O [LWRRWIRWL]

MIC (Bacillus subtilis): 8 µM (≈ 14 µg/mL)
MIC [7]: 8 µM (≈ 14 µg/mL)
MIC [8]: 4 µM (≈ 6.99 µg/mL)
MIC [9]: 8 µM (≈ 14 µg/mL)
MIC [3]: 2 µM (≈ 3.49 µg/mL)
MIC (Escherichia coli): 4 µM (≈ 6.99 µg/mL)
MIC [10]: 8 µM (≈ 14 µg/mL)
MIC [11]: 8 µM (≈ 14 µg/mL)
Compound: CC(C)C[C@H](NC(=O)[C@H](CCCN=C(N)N)NC(=O)CNC(=O)CNC(=O)[C@@H](N)CCCN=C(N)N)C(=O)N[C@@H](Cc1ccc(O)cc1)C(=O)N[C@@H](CCCN=C(N)N)C(=O)N[C@@H](CCCN=C(N)N)C(=O)N[C@@H](CCCN=C(N)N)C(=O)N[C@@H](Cc1ccccc1)C(=O)N[C@H](C(=O)N[C@H](C(=O)NCC(=O)N[C@@H](CCCN=C(N)N)C(N)=O)C(C)C)C(C)C [RGGRLYRRRFVVGR]

MIC (Escherichia coli MG1655): ≥ 77 µM
MIC (Bacillus subtilis 168 HT): ≥ 38.5 µM
Compound: CC[C@H](C)[C@H](NC(=O)[C@H](CCCCN)NC(=O)[C@@H](N)Cc1c[nH]c2ccccc12)C(=O)N[C@@H](Cc1ccccc1)C(=O)N[C@@H](CCCCN)C(=O)N[C@@H](CC(C)C)C(=O)N[C@@H](CCCCN)C(=O)N[C@@H](CC(C)C)C(=O)N[C@@H](CCCN=C(N)N)C(=O)N[C@@H](CCSC)C(=O)N[C@@H](CC(C)C)C(=O)N[C@@H](Cc1c[nH]c2ccccc12)C(=O)O [WKIFKLKLRMLW]

MIC [15]: 6.46 µM (≈ 16 µg/mL)
MIC (Escherichia coli BL21AI): 6.46 µM (≈ 16 µg/mL)
Compound: CC[C@H](C)[C@H](NC(=O)[C@H](CCCN=C(N)N)NC(=O)[C@H](CCCN=C(N)N)NC(=O)[C@@H]1CCCN1C(=O)[C@@H]1CCCN1C(=O)[C@H](CCCCN)NC(=O)[C@@H]1CCCN1C(=O)[C@H](CCCN=C(N)N)NC(=O)[C@@H]1CCCN1C(=O)[C@H](CC(C)C)NC(=O)[C@H](Cc1ccc(O)cc1)NC(=O)[C@@H]1CCCN1C(=O)[C@@H]1CCCN1C(=O)[C@H](CCCCN)NC(=O)[C@H](CC(=O)O)NC(=O)[C@@H](N)C(C)C)C(=O)N[C@@H](Cc1ccc(O)cc1)C(=O)N[C@@H](CC(N)=O)C(=O)N[C@@H](CC(N)=O)C(=O)N[C@@H](CCCN=C(N)N)C(=O)O [VDKPPYLPRPKPPRRIYNNR]
